Data: patent US20110219476A1, “GLUCURONYL TRANSFERASE AND POLYNUCLEOTIDE ENCODING THE SAME” (priority 2008, published 2011)

Tests used:
[1] = molecular target: T1, flavonoid 7-O-glucuronosyltransferase VpF7GAT (Veronica persica, UniProt C0STS8); assay: Selectivity of VpF7GAT to glycosyl acceptor substrates (glycosyl donor: UDP-glucuronic acid); type: biochemical; settings: for glucuronosyltransferase activity (in words) / relative activity of glycosyl acceptor substrate: glycosyl donor UDP-glucuronic acid; for glucuronosyltransferase activity (in words): reaction conditions for this enzyme; for activity of VpF7GAT with the glycosyl acceptor substrate (in words, summary in the description): compared to other glycosyl acceptor substrates; for relative activity of glycosyl acceptor substrate: activity to apigenin made 100%, FIG. 3
Experimental: (§1) Standard reaction conditions are as follows. […] The mixture was reacted at 30° C. for 1 minute. The reaction was then terminated by adding 50 μl of CH3CN containing 0.5% TFA. The product was analyzed by reversed phase HPLC (LC-2010 System, Shimadzu Corporation).
(§2) The conditions for HPLC are as follows. Develosil C30-UG-5 column (4.6 mm×150 mm, Nomura Chemical) was used with a column oven at 40° C., and the moving phase A (0.1% TFA/H2O) and the moving phase B (0.1% TFA/90% CH3CN) were used. The conditions for elution include a linear density gradient (B20%→B70%) for 15 minutes, then retention with B70% for further 1 minute and again reverting to B20%, followed by equilibration for 20 minutes. HPLC was performed at the flow of 1 ml/min. Detection was performed at 280 and 360 nm using a SPD-M10A Photodiode Array Detector (Shimadzu Corporation).

[2] = molecular target: T1, flavonoid 7-O-glucuronosyltransferase VpF7GAT; settings: glycosyl acceptor substrate apigenin; activity of UDP-glucuronic acid made 100%
Experimental: as §1, §2

T1 sequence (C0STS8 entry or part of it): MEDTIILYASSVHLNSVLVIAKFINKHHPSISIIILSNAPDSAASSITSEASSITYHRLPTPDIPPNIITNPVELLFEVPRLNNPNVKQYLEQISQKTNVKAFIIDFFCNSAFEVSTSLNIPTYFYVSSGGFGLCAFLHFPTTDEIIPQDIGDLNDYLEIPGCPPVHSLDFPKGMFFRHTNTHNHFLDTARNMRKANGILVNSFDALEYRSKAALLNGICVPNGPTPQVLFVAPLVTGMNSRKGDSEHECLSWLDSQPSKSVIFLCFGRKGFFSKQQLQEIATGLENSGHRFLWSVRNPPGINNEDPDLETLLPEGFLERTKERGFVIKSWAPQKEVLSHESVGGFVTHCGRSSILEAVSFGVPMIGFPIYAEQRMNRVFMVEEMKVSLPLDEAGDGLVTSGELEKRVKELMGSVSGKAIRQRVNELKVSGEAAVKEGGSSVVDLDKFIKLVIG

glucuronosyltransferase activity (in words) [1] | relative activity of UDP glycosyl donor [2] | SMILES | activity of VpF7GAT with the glycosyl acceptor substrate (in words, summary in the description) [1] | relative activity of glycosyl acceptor substrate [1]
not observed | – | O=c1c(-c2ccc(O)cc2)coc2cc(O)cc(O)c12 [genistein] | – | –
not observed | – | O=c1cc(-c2ccc(O)cc2)oc2cc(O)c([C@@H]3O[C@H](CO)[C@@H](O)[C@H](O)[C@H]3O)c(O)c12 [isovitexin] | – | –
not observed | – | O=c1ccc2cc(O)c(O)cc2o1 [esculetin] | – | –
not observed | – | Oc1cc2c(cc1[C@H]1OC[C@H]3[C@@H]1CO[C@@H]3c1ccc3c(c1)OCO3)OCO2 [sesaminol] | – | –

Continued, molecule first:

SMILES | glucuronosyltransferase activity (in words) [1] | relative activity of UDP glycosyl donor [2] | activity of VpF7GAT with the glycosyl acceptor substrate (in words, summary in the description) [1] | relative activity of glycosyl acceptor substrate [1]
O=C1C[C@@H](c2ccc(O)cc2)Oc2cc(O)cc(O)c21 [naringenin] | – | – | strong | 18.0%
O=C(O)[C@H]1O[C@H](OP(=O)(O)OP(=O)(O)OC[C@H]2O[C@@H](n3ccc(=O)[nH]c3=O)[C@H](O)[C@@H]2O)[C@H](O)[C@@H](O)[C@@H]1O [UDP-glucuronic acid] | – | 100% | – | –
O=c1cc(-c2ccc(O)cc2)oc2cc(O)cc(O)c12 [apigenin] | – | – | strong | 100%
O=c1c(O)c(-c2ccc(O)cc2)oc2cc(O)cc(O)c12 [kaempferol] | – | – | strong | 13.3%
Oc1ccc(C=Cc2cc(O)cc(O)c2)cc1 [resveratrol] | not observed | – | – | –
O=c1cc(-c2ccccc2)oc2cc(O)c(O)c(O)c12 [baicalein] | – | – | shows an activity | 13.1%
COc1ccc(-c2cc(=O)c3c(O)cc(O)cc3o2)cc1O [diosmetin] | – | – | strong | 12.9%
O=c1cc(-c2ccc(O)c(O)c2)oc2c([C@@H]3O[C@H](CO)[C@@H](O)[C@H](O)[C@H]3O)c(O)cc(O)c12 [orientin] | not observed | – | – | –
COc1cc(-c2cc(=O)c3c(O)cc(O)cc3o2)ccc1O [chrysoeriol] | – | – | strong | 34.0%
O=c1c(O)c(-c2ccc(O)c(O)c2)oc2cc(O)cc(O)c12 [quercetin] | – | – | shows an activity | 1.0%
O=c1cc(-c2ccc(O)cc2)oc2cc(O)c(O)c(O)c12 [scutellarein] | – | – | – | 88.3%
